Data: PMC4864329, “In vitro and in vivo efficacy, toxicity, bio-distribution and resistance selection of a novel antibacterial drug candidate” (Scientific Reports, 2016)
In brackets after ≈: the same amount, converted by molar mass. Where two headings read alike, the source gives them in different places. Positions of bridges follow the written chain, without caps; N, C: chain ends. Non-standard residues stand in square brackets, D forms with d. Residues, ends and D or L forms follow the SMILES beside them. Chains are numbered I, II in the order given. βAla = NCCC(=O)O

Assays:
[1] = system: human lymphocytes; conditions: positive control
Method: Gene toxicity was assessed by testing the potential of SET-M33L to induce micronuclei in human lymphocytes. Human lymphocytes in whole blood culture, stimulated to divide by addition of PHA 48 hours prior to treatment, were exposed to SET-M33L for 3 hours with and without exogenous metabolic activation (S9 mix), and for 20 hours without S9 mix.
Analysis of micronucleated cells was based on the criteria described by Fenech and Morley[37] and Fenech[38]. […] Human lymphocytes from informed donors were pooled and diluted with HML media (RPMI 1640, supplemented with 10% fetal calf serum, 0.2 IU/ml sodium heparin, 20 IU/ml penicillin, 20 μg/ml streptomycin and 2.0 mM L-glutamine). […] Cultures were established from the prepared (pooled) sample and dispensed as 5 ml aliquots (in sterile universal containers) so that each culture contained blood (0.4 ml), HML media (4.5 ml) and PHA solution (0.1 ml). The cultures were then incubated at 37 °C, and the cells were resuspended (twice daily) by gentle inversion.
Lymphocyte cultures were incubated for approximately 48 hours after stimulation with PHA, before addition of SET-M33L; controls were appropriately diluted with vehicle. S9 homogenate was present in appropriate cultures at a final concentration of 2% v/v. Before treatment, all cultures were centrifuged and resuspended in the required volume of fresh medium, taking treatment volume and S9 mix volume into account. SET-M33L preparations were added to cultures at 10% v/v. Cultures were incubated at 37 °C for 3 or 20 hours.
The cells were centrifuged and the medium replaced with fresh medium. Cytochalasin B, at a final concentration of 6 μg/ml, was then added to all cultures. The cultures were incubated for a further 17 hours until the scheduled harvest time.
The cells were harvested by centrifugation at 500 g for 5 minutes. […] The prepared slides were examined by fluorescence microscopy. The incidences of mononucleate, binucleate and polynucleate cells were assessed per culture per 1000 binucleate cells. […]

[2] = system: Klebsiella pneumoniae clinical isolates; type: cell-based; conditions: clinical isolates
Method: Minimum inhibitory concentrations (MICs) of SET-M33L were determined against 76 clinical isolates of Pseudomonas aeruginosa and 73 clinical isolates of Klebsiella pneumoniae. The isolates were selected on the basis of their resistance phenotypes and major antibiotic resistance determinants, including resistance to colistin and carriage of carbapenemase-encoding genes (Table 1 and supplemental Tables S1 and S2).
MIC values were determined against a large collection of clinical isolates. Most isolates were collected during routine susceptibility testing procedures at the Clinical Microbiology Unit of Careggi University Hospital in Florence, while specific isolates were selected according to their phenotype or genotype (e.g. carriage of carbapenemase-encoding genes, inclusion in epidemic bacterial clones, resistance to colistin) from a collection of isolates already available at Department of Medical Biotechnologies, University of Siena. Detailed features of each strain, including relevant resistance phenotypes and genotypes were reported in supplemental Tables S1 and S2. MICs were determined in triplicate using a standard microdilution assay according to the guidelines of the Clinical and Laboratory Standards Institute[34]. SET-M33L was assayed using concentrations in the range 0.09–11.2 μM (0.5–64 μg/mL); testing was performed using a bacterial inoculum of 5 × 10^4 CFU/well prepared in cation-supplemented Mueller-Hinton broth (MHB) (Becton Dickinson, Franklin Lakes, NJ, USA) in a final volume of 100 μl. Results were recorded after 18–20 h of incubation at 35 °C.

[3] = system: K. pneumoniae strain KKBO-1; type: cell-based, Klebsiella pneumoniae; conditions: K. pneumoniae KKBO-1
Method: Tests were performed by plating cells on SET-M33L- or colistin-containing MHB.

[4] = system: BALB/c mice; assay: Acute toxicity in mice, single i.v. dose; type: in vivo, mouse
Method: As preliminary toxicity evaluation we first compared the acute toxicity of SET-M33L and SET-M33L-PEG with that of colistin. Animals (10 BALB/c mice/group) were injected i.v. with different amounts of SET-M33L, SET-M33L-PEG or colistin, in single dose, in the range 5–40 mg/kg (Fig. 4), and were monitored for 4 days after inoculation of the peptide. […] At 40 mg/Kg SET-M33L and SET-M33L-PEG produced similar toxicity profiles with strong signs of toxicity and 90–100% mortality after 96 hours. Colistin produced strong signs of toxicity already at 10 mg/Kg: 50% mortality immediately after inoculation and 70% mortality after 24 hours. Colistin induced sudden death in 100% of mice at 20 and 40 mg/Kg.
Mice were treated by a single i.v. administration of different amounts (40, 20, 10, 5 mg/Kg) of SET-M33L, SET-M33L-PEG or colistin sulfate (Sigma-Aldrich, C4461). Signs of toxicity were checked four times a day by visual inspection. A toxicity score was assigned for the following signs: wiry coat and poor motility = mild signs; very wiry coat, abundant lachrymation and poor motility even under stimulation = manifest signs. Animals were monitored for 4 days after inoculation of the peptide. Mice were weighed every day from arrival to the last day of the experiment. Moribund animals were killed humanely to avoid unnecessary distress.

Structure (SMILES): CO[C@@]12[C@H](COC(N)=O)C3=C(C(=O)C(C)=C(N)C3=O)N1C[C@@H]1N[C@@H]12 [MMC, Mitomycin C]
- Mean of binucleate cells containing micronuclei per 1000 cells ([1]; 3h − S9, 0.2 μg/ml): 28.0 per 1000 cells
- Mean of binucleate cells containing micronuclei per 1000 cells ([1]; 20h − S9, 0.05 μg/ml): 22.5 per 1000 cells

Structure (SMILES): CC[C@H](C)[C@H](NC(=O)[C@H](CCCCN)NC(=O)[C@@H](N)CCCCN)C(=O)N[C@@H](CCCNC(=N)N)C(=O)N[C@H](C(=O)N[C@@H](CCCNC(=N)N)C(=O)N[C@@H](CC(C)C)C(=O)N[C@@H](CO)C(=O)N[C@@H](C)C(=O)NCCCC[C@H](NC(=O)[C@H](C)NC(=O)[C@H](CO)NC(=O)[C@H](CC(C)C)NC(=O)[C@H](CCCNC(=N)N)NC(=O)[C@@H](NC(=O)[C@H](CCCNC(=N)N)NC(=O)[C@@H](NC(=O)[C@H](CCCCN)NC(=O)[C@@H](N)CCCCN)[C@@H](C)CC)C(C)C)C(=O)NCCCC[C@H](NC(=O)[C@H](CCCCNC(=O)[C@H](C)NC(=O)[C@H](CO)NC(=O)[C@H](CC(C)C)NC(=O)[C@H](CCCNC(=N)N)NC(=O)[C@@H](NC(=O)[C@H](CCCNC(=N)N)NC(=O)[C@@H](NC(=O)[C@H](CCCCN)NC(=O)[C@@H](N)CCCCN)[C@@H](C)CC)C(C)C)NC(=O)[C@H](C)NC(=O)[C@H](CO)NC(=O)[C@H](CC(C)C)NC(=O)[C@H](CCCNC(=N)N)NC(=O)[C@@H](NC(=O)[C@H](CCCNC(=N)N)NC(=O)[C@@H](NC(=O)[C@H](CCCCN)NC(=O)[C@@H](N)CCCCN)[C@@H](C)CC)C(C)C)C(=O)NCCC(=O)O)C(C)C [SET-M33L] (I: H-KKIRVRLSAKK[βAla]-OH / II: H-KKIRVRLSAK / III: H-KKIRVRLSA / IV: H-KKIRVRLSA; amide I:10-IV:C, I:11-II:C, II:10-III:C)
- MIC [2]: > 64 µg/mL
- MIC [3]: 0.35 µM (≈ 1.64 µg/mL)
- mortality ([4]; single i.v. dose 40 mg/Kg, after 96 hours): 90–100%
- lethality and signs of toxicity ([4]; single i.v. dose up to 20 mg/kg, monitored 4 days, 10 BALB/c mice/group): not lethal and no signs of toxicity were observed

Structure (SMILES): O=P1(N(CCCl)CCCl)NCCCO1 (stereo not shown) [CPA, Cyclophosphamide]
- Mean of binucleate cells containing micronuclei per 1000 cells ([1]; 3h + S9, 10 μg/ml): 17.0 per 1000 cells
